# Reference: patent US12473289B2, “Heterocyclic compounds as delta-5 desaturase inhibitors and methods of use” (Amgen Inc., priority 2019, dated 2025)
# Target: Delta-5-Desaturase (D5D) (Homo sapiens (Human), UniProt O60427)
# Test: In vitro measurement of Delta-5-Desaturase inhibitory activity using DGLA-CoA and Arachidonyl-CoA mass spectrometric assays
# Assay type: biochemical
# Settings: membrane preparations of D5D-overexpressing HEK293 6E cells; averaged over at least two independent runs
# In short: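 DGLA-CoA and arachidonyl-CoA were read by RapidFire SPE triple-quad MS (negative mode, MRM) after a 1 h ambient-temperature reaction quenched with acetonitrile. Enzyme was D5D-overexpressing HEK293 6E membranes at 10 μg/mL final; substrate solution held 0.01 mM DGLA plus NADH, ATP and CoA. Inhibition was referenced to DMSO and no-enzyme wells; 4PL IC50.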
# Chain of Delta-5-Desaturase (D5D) (O60427 whole entry, species assumed): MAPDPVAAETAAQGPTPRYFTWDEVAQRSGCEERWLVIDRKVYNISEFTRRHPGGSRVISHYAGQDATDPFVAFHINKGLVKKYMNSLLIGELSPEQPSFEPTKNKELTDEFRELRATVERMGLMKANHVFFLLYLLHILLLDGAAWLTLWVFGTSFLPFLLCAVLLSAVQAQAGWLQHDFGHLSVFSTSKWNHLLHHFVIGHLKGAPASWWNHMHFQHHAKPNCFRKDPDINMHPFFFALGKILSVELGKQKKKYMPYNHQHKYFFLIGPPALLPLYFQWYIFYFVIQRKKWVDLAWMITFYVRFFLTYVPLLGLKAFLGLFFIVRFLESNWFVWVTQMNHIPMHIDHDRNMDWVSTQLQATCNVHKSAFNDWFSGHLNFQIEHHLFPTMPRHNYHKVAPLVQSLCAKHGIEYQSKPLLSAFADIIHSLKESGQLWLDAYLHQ
row,Structure (SMILES),IC50 [nM]
1,"COc1ccn2c(=O)c(-c3cnn(CCC#N)c3)c(C(F)(F)F)nc2c1 [Example 1-24, 3-(4-(8-methoxy-4-oxo-2-(trifluoromethyl)-4H-pyrido[1,2-a]pyrimidin-3-yl)-1H-pyrazol-1-yl)propanenitrile]",833
2,"NCc1ccn2c(=O)c(-c3cnn(CC(F)(F)C(F)(F)F)c3)c(C(F)(F)F)nc2c1 [Example 16-2, 8-(aminomethyl)-3-(1-(2,2,3,3,3-pentafluoropropyl)-1H-pyrazol-4-yl)-2-(trifluoromethyl)-4H-pyrido[1,2-a]pyrimidin-4-one]",137
3,"O=c1c(-c2ccc(OCC(F)(F)F)c(Cl)c2)c(C(F)(F)F)nc2ccccn12 [Example 5-2, 3-(3-chloro-4-(2,2,2-trifluoroethoxy)phenyl)-2-(trifluoromethyl)-4H-pyrido[1,2-a]pyrimidin-4-one]",157
4,"CCOc1nc2cc(OC)ccn2c(=O)c1-c1cnn(CC(F)(F)C(F)(F)F)c1 [Example 41-4, 2-ethoxy-8-methoxy-3-[1-(2,2,3,3,3-pentafluoropropyl)-1H-pyrazol-4-yl]-4H-pyrido[1,2-a]pyrimidin-4-one]",22.3
5,"CCc1nc2cc(OC)ccn2c(=O)c1-c1cnn(CC(F)(F)C(F)(F)F)c1 [Example 3-1, 2-Ethyl-8-methoxy-3-(1-(2,2,3,3,3-pentafluoropropyl)-1H-pyrazol-4-yl)-4H-pyrido[1,2-a]pyrimidin-4-one]",53.9
6,"N#CCc1ccn2c(=O)c(-c3cnn(CC(F)(F)C(F)(F)F)c3)c(C(F)(F)F)nc2c1 [Example 16-1, (4-Oxo-3-(1-(2,2,3,3,3-pentafluoropropyl)-1H-pyrazol-4-yl)-2-(trifluoromethyl)-4H-pyrido[1,2-a]pyrimidin-8-yl)acetonitrile]",52.4
7,"O=c1c(-c2cnn(CC(F)(F)C(F)(F)F)c2)c(C(F)(F)F)nc2n1CCOC2 [Example 39-34, 3-[1-(2,2,3,3,3-pentafluoropropyl)-1H-pyrazol-4-yl]-2-(trifluoromethyl)-4H,6R,7H,9H-pyrimido[2,1-c][1,4]oxazin-4-one]",30.2
8,"Cc1cn2c(=O)c(-c3cnc(OCC(F)(F)F)nc3)c(C(F)(F)F)nc2cn1 [Example 39-30, 7-methyl-3-[2-(2,2,2-trifluoroethoxy)pyrimidin-5-yl]-2-(trifluoromethyl)-4H-pyrazino[1,2-a]pyrimidin-4-one]",> 67000
9,"COc1ccn2c(=O)c(-c3cnc(OCC(F)(F)C(F)(F)F)nc3)c(C(F)(F)F)nc2c1 [Example 39-12, 8-methoxy-3-[2-(2,2,3,3,3-pentafluoropropoxy)pyrimidin-5-yl]-2-(trifluoromethyl)-4H-pyrido[1,2-a]pyrimidin-4-one]",53.7
10,"Cc1cnn2c(=O)c(-c3cnn(CCC(F)(F)F)c3)c(C(F)(F)F)nc2c1 [Example 39-44, 8-methyl-2-(trifluoromethyl)-3-[1-(3,3,3-trifluoropropyl)-1H-pyrazol-4-yl]-4H-pyrimido[1,2-b)pyridazin-4-one]",241
11,"O=c1c(-c2ccc(OCC(F)(F)F)cc2)c(C(F)(F)F)nc2cc(C(F)(F)F)ccn12 [Example 4-1, 3-(4-(2,2,2-Trifluoroethoxy)phenyl)-2,8-bis(trifluoromethyl)-4H-pyrido[1,2-a]pyrimidin-4-one]",5220
12,"C[S@@+]([O-])c1ccn2c(=O)c(-c3cnn(CC(F)(F)C(F)(F)F)c3)c(C(F)(F)F)nc2c1 [Example 15-6, 8-((R)-methylsulfinyl)-3-(1-(2,2,3,3,3-pentafluoropropyl)-1H-pyrazol-4-yl)-2-(trifluoromethyl)-4H-pyrido[1,2-a]pyrimidin-4-one]",173
13,"C[S+]([O-])c1ccn2c(=O)c(-c3cnn(CC(F)(F)C(F)(F)F)c3)c(C(F)(F)F)nc2c1 (centres unmarked) [Example 15-4, 8-(methylsulfinyl)-3-(1-(2,2,3,3,3-pentafluoropropyl)-1H-pyrazol-4-yl)-2-(trifluoromethyl)-4H-pyrido[1,2-a]pyrimidin-4-one]",712
14,"C[S@+]([O-])c1ccn2c(=O)c(-c3ccc(OCC(F)(F)F)cc3)c(C(F)(F)F)nc2c1 [Example 15-3, 8-((S)-methylsulfinyl)-3-(4-(2,2,2-trifluoroethoxy)phenyl)-2-(trifluoromethyl)-4H-pyrido[1,2-a]pyrimidin-4-one]",235
15,"O=c1c(-c2cnn(CC(F)(F)C(F)(F)F)c2)c(C(F)(F)F)nc2cc(O)cnn12 [Example 44, 8-Hydroxy-3-[1-(2,2,3,3,3-pentafluoropropyl)-1H-pyrazol-4-yl]-2-(trifluoromethyl)-4H-pyrimido[1,2-b]pyridazin-4-one]",1810
16,"Cc1ccc2nc(C(F)(F)F)c(-c3cnc(OCC(F)(F)F)nc3)c(=O)n2n1 [Example 39-36, 7-methyl-3-[2-(2,2,2-trifluoroethoxy)pyrimidin-5-yl]-2-(trifluoromethyl)-4H-pyrimido[1,2-b]pyridazin-4-one]",> 67000

# The next lines start with the values.
row,IC50 [nM],Structure (SMILES)
1,1350,"COc1cc(C)n2c(=O)c(-c3cnn(CC(F)(F)C(F)(F)F)c3)c(C(F)(F)F)nc2c1 [Example 39-8, 8-methoxy-6-methyl-3-[1-(2,2,3,3,3-pentafluoropropyl)-1H-pyrazol-4-yl]-2-(trifluoromethyl)-4H-pyrido[1,2-a]pyrimidin-4-one]"
2,8.7,"COc1ccn2c(=O)c(-c3cc(CCC(F)(F)F)no3)c(C(F)(F)F)nc2c1 [Example 55, 8-Methoxy-2-(trifluoromethyl)-3-[3-(3,3,3-trifluoropropyl)-1,2-oxazol-5-yl]-4H-pyrido[1,2-a]pyrimidin-4-one]"
3,365,"COc1ccn2c(=O)c(-n3cnc(CCC(F)(F)F)c3)c(C(F)(F)F)nc2c1 [Example 59, 8-Methoxy-2-(trifluoromethyl)-3-[4-(3,3,3-trifluoropropyl)-1H-imidazol-1-yl]-4H-pyrido[1,2-a]pyrimidin-4-one]"
4,164,"C[C@@H](O)c1ccn2c(=O)c(-c3cnn(CC(F)(F)C(F)(F)F)c3)c(C(F)(F)F)nc2c1 [Example 31-1, 8-((1R)-1-hydroxyethyl)-3-(1-(2,2,3,3,3-pentafluoropropyl)-1H-pyrazol-4-yl)-2-(trifluoromethyl)-4H-pyrido[1,2-a]pyrimidin-4-one]"
5,317,"CSCOc1ccn2c(=O)c(-c3ccc(OCC(F)(F)F)cc3)c(C(F)(F)F)nc2c1 [Example 17-1, 8-((Methylsulfanyl)methoxy)-3-(4-(2,2,2-trifluoroethoxy)phenyl)-2-(trifluoromethyl)-4H-pyrido[1,2-a]pyrimidin-4-one]"
6,88.4,"O=c1c(-c2ccc(OCC(F)(F)F)cc2)c(C(F)(F)F)nc2cc(F)ccn12 [Example 2-3, 8-fluoro-3-(4-(2,2,2-trifluoroethoxy)phenyl)-2-(trifluoromethyl)-4H-pyrido[1,2-a]pyrimidin-4-one]"
7,5.4,"COc1ccn2c(=O)c(-c3cnn(-c4ccccc4)c3)c(C(F)(F)F)nc2c1 [Example 1-47, 8-methoxy-3-(1-phenyl-1H-pyrazol-4-yl)-2-(trifluoromethyl)-4H-pyrido[1,2-a]pyrimidin-4-one]"
8,74.9,"COc1ccn2c(=O)c(-c3cc(CC(F)(F)C(F)(F)F)no3)c(C(F)(F)F)nc2c1 [Example 60, 8-Methoxy-3-[3-(2,2,3,3,3-pentafluoropropyl)-1,2-oxazol-5-yl]-2-(trifluoromethyl)-4H-pyrido[1,2-a]pyrimidin-4-one]"
9,4.1,"COc1cc2nc(C(F)(F)F)c(-c3ccc(OCC(F)(F)F)cc3)c(=O)n2cc1F [Example 39-57, 7-fluoro-8-methoxy-3-[4-(2,2,2-trifluoroethoxy)phenyl]-2-(trifluoromethyl)-4H-pyrido[1,2-a]pyrimidin-4-one]"
10,28.1,"[2H]C([2H])([2H])Oc1ccn2c(=O)c(-c3cnn(CCCC(F)(F)F)c3)c(C(F)(F)F)nc2c1 [Example 1-63, 8-(methyloxy-d3)-3-(1-(4,4,4-trifluorobutyl)-1H-pyrazol-4-yl)-2-(trifluoromethyl)-4H-pyrido[1,2-a]pyrimidin-4-one]"
11,47.4,"COc1ccn2c(=O)c(-c3cnn(CC4CC4)c3)c(C(F)(F)F)nc2c1 [Example 39-45, 3-[1-(cyclopropylmethyl)-1H-pyrazol-4-yl]-8-methoxy-2-(trifluoromethyl)-4H-pyrido[1,2-a]pyrimidin-4-one]"
12,185,"CC[S@@+]([O-])c1ccn2c(=O)c(-c3ccc(OCC(F)(F)F)cc3)c(C(F)(F)F)nc2c1 [Example 15-8, 8-((R)-ethylsulfinyl)-3-(4-(2,2,2-trifluoroethoxy)phenyl)-2-(trifluoromethyl)-4H-pyrido[1,2-a]pyrimidin-4-one]"
13,6770,"Cc1cc2nc(C(F)(F)F)c(-c3cnn(CC(F)(F)C(F)(F)F)c3)c(=O)n2nc1C [Example 39-46, 7,8-dimethyl-3-[1-(2,2,3,3,3-pentafluoropropyl)-1H-pyrazol-4-yl]-2-(trifluoromethyl)-4H-pyrimido[1,2-b]pyridazin-4-one]"
14,118,"COc1cnn2c(=O)c(-c3cnn(CC(F)(F)C(F)(F)F)c3)c(C(F)(F)F)nc2c1 [Example 34, 8-Methoxy-3-[1-(2,2,3,3,3-pentafluoropropyl)-1H-pyrazol-4-yl]-2-(trifluoromethyl)-4H-pyrimido[1,2-b]pyridazin-4-one]"
15,31.7,"COc1cc2nc(C(F)(F)F)c(-c3cnn(C[C@H]4CC4(F)F)c3)c(=O)n2cc1F [Example 71, 3-(1-(((1R)-2,2-difluorocyclopropyl)methyl)-1H-pyrazol-4-yl)-7-fluoro-8-methoxy-2-(trifluoromethyl)-4H-pyrido[1,2-a]pyrimidin-4-one]"
16,79.1,"O=c1c(-c2ccc(OCC(F)(F)F)cc2)c(C(F)(F)F)nc2cc(OC(F)F)ccn12 [Example 1-66, 8-(difluoromethoxy)-3-(4-(2,2,2-trifluoroethoxy)phenyl)-2-(trifluoromethyl)-4H-pyrido[1,2-a]pyrimidin-4-one]"
